Assay results taken from patent US20120259092A1, “NPY ANTAGONISTS” (priority 2011, published 2012).
“Also recorded” adds a separate entry of the source. Bridge positions count the residues as written; N and C are the ends. Square brackets hold non-standard residues; d marks the D form. Peptide text beside a SMILES is read from it. I, II: the chains in the order shown. * marks the point of attachment. DOTA = O=C(O)CN1CCN(CC(=O)O)CCN(CC(=O)*)CCN(CC(=O)O)CC1; Nle = CCCC[C@H](N)C(=O)O

Columns and labels:
NPY Y1 [1] = target: T1, NPY Y1 (Homo sapiens, UniProt P25929); experiment: Adenylate cyclase activity (forskolin-stimulated cAMP accumulation) flashplate assay in SK-N-MC cells; assay type: cell-based; settings: for Activity Y1-cAMP (SK-N-MC): agonistic or antagonistic property: SK-N-MC cells
T1 construct: SK-N-MC cells endogenously expressing Y1; host or cells: SK-N-MC
T1 sequence (P25929 1-384): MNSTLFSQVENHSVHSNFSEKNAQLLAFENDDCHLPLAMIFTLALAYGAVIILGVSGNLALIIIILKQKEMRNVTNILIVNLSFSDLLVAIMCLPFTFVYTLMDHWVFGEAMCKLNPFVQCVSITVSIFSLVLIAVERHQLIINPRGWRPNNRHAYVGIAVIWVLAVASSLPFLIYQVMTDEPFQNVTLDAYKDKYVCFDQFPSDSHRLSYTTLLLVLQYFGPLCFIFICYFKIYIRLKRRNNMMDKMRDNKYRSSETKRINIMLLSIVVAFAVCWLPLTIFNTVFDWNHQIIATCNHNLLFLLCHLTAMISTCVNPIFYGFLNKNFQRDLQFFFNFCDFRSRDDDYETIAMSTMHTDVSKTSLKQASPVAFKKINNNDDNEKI
Protocol: Cells were incubated for 30 min with 10 μM forskolin in the presence of [Leu^31-Pro^34]-PYY (LP-PYY) at concentrations ranging between 0.01 nM and 20 μM alone ([…]) or with 10 μM forskolin in the presence of LP-PYY at concentrations ranging between 0.01 nM and 20 μM supplemented with a fixed concentration of 20 μM of the analog Peptide No. 11 (▪). […] Peptide No. 11 given alone has no effect on the accumulation of forskolin-stimulated cAMP (▴).
Adenylate cyclase activity with respect to NPY Y1 was determined in SK-N-MC cells using the adenylate cyclase activation flashplate assay (SMP004) from PerkinElmer. SK-N-MC cells were seeded in 96-well culture plates at 25,000 cells/well and cultured for 48 h at 37° C. and 5% CO2. Culture medium was then removed from the wells and fresh medium (100 μL) containing 0.5 mM 3-isobutyl-1-methylxanthine (IBMX) was added to each well. Cells were incubated for 30 min at 37° C. Medium was then removed and replaced with fresh medium containing 0.5 mM IBMX, with or without 10 μM forskolin and various concentrations of the peptides to be analyzed. Cells were incubated for 30 min at 37° C. After removal of the medium, cells were lysed and cAMP accumulation was determined using the SMP004 kit from PerkinElmer.
Because the addition of a DOTA moiety can change the functional characteristics of a compound, as recently shown in the somatostatin receptor field for sst3, compounds having a high or moderate Y1 affinity were analyzed in an adenylate cyclase activity assay for their agonistic or antagonistic properties. […] Given alone at a high concentration of 20 μM, they were unable to inhibit forskolin-stimulated cAMP accumulation but they efficiently antagonized the agonistic effect of 100 nM [Leu^31, Pro^34]-hPYY. […] The conclusion is that the DOTA-conjugated compound, i.e. Peptide No. 11, with its high binding affinity and its antagonist property represents an excellent candidate for in vivo tumor targeting.

NPY Y1 [2] = target: T1, NPY Y1; experiment: Receptor autoradiography binding, 125I-hPYY displacement on SK-N-MC cell membrane pellet sections; settings: for IC50: SK-N-MC membrane pellet sections, 125I-hPYY, read-out: Binding affinity (IC50 nM) Y1 (SK-N-MC); for Displacement of 125I-hPYY (FIG. 2): SK-N-MC cell line, competition experiments
Protocol: Testing of Peptides 1-11 was carried out using specific cell lines. The neuroepithelioma cell line SK-N-MC endogenously expressing the NPY Y1 receptor was obtained from ATCC (HTB-10; LGC Standards, Teddington, Middlesex, UK). Cells were cultured at 37° C. and 5% CO2 in MEM medium with GlutaMax I and supplemented with 10% FBS, 100 U/ml penicillin and 100 μg/ml streptomycin, 1 mM MEM sodium pyruvate, and MEM non-essential amino acids (1×). The neuroblastoma cell line SH-SY5Y endogenously expressing the NPY Y2 receptor, was provided by Dr. Paolo Paganetti (Novartis, Basel, Switzerland). Cells were cultured at 37° C. and 5% CO2 in MEM/Ham's F12 with GlutaMax I and supplemented with 10% FBS, 100 U/ml penicillin and 100 μg/ml streptomycin, 1 mM MEM sodium pyruvate, and MEM non-essential amino acids (1×).
Binding affinities of the compounds were assessed using sections of cell membrane pellets of SK-N-MC for NPY Y1 or SH-SY5Y for NPY Y2. Briefly, membrane pellets were prepared and stored at −80° C., and receptor autoradiography was performed on 20-μm thick cryostat sections of the membrane pellets, mounted on microscope slides and stored at −20° C. The slides were preincubated in Krebs-Ringer solution (NaCl 119 mM, KCl 3.2 mM, KH2PO4 1.19 mM, MgSO4 1.19 mM, NaHCO3 25 mM, CaCl2 2.53 mM, D-glucose 10 mM; pH 7.4) for 60 min at room temperature. Then, they were incubated for 120 min in Krebs-Ringer solution containing 0.1% BSA, 0.05% bacitracin, and 10 000 cpm/100 μl of the ^125I-labeled human PYY alone or with increasing concentrations ranging from 0.1 nM up to 1000 nM of non-labeled hPYY, as control, or with the compounds to be tested. After the incubation, the slides were washed two times for 5 min and then rinsed four times in ice-cold preincubation solution. After drying, the slides were exposed to Kodak films Biomax MR® for 7 days. IC50 values were calculated after quantification of the data using a computer-assisted image processing system. Tissue standards containing known amount of isotope, cross-calibrated to tissue-equivalent ligand concentrations were used for quantification.
The DOTA-free and DOTA-coupled analogs listed in Table 1 were analyzed in receptor autoradiography experiments for NPY Y1 and Y2 receptor binding affinities on SK-N-MC cells endogenously expressing Y1 and SH-SY5Y cells endogenously expressing Y2, respectively. Pharmacological displacement experiment using SK-N-MC cell membrane pellet sections for Peptides Nos. 9, 10 and 11 are shown in FIG. 2. The addition of two DOTA moieties to the homodimeric analogs decreases the Y1 binding affinity up to 2-30 fold.

| Compound | Activity Y1-cAMP (SK-N-MC): agonistic or antagonistic property (NPY Y1 [1]; 10 μM forskolin) | IC50 (NPY Y1 [2]) | Effect on forskolin-stimulated cAMP accumulation, given alone (NPY Y1 [1]; peptide alone, 20 μM, 10 μM forskolin) | Displacement of 125I-hPYY (FIG. 2) (NPY Y1 [2]) | Effect on dose response curve of [Leu31,Pro34]-PYY (LP-PYY) (NPY Y1 [1]; peptide fixed at 20 μM, with increasing LP-PYY, 10 μM forskolin, 30 min) | Inhibition of forskolin-stimulated cAMP accumulation (agonist control) (NPY Y1 [1]; applied at 20 μM and 100 nM) |
| --- | --- | --- | --- | --- | --- | --- |
| CC[C@H](C)[C@H](NC(=O)CN1CCN(CC(=O)O)CCN(CC(=O)O)CCN(CC(=O)O)CC1)C(=O)N[C@@H](CC(N)=O)C(=O)N1CCC[C@H]1C(=O)N[C@@H](CSSC[C@H](NC(=O)[C@@H]1CCCN1C(=O)[C@H](CC(N)=O)NC(=O)[C@@H](NC(=O)CN1CCN(CC(=O)O)CCN(CC(=O)O)CCN(CC(=O)O)CC1)[C@@H](C)CC)C(=O)N[C@@H](Cc1ccc(O)cc1)C(=O)N[C@@H](CCCNC(=N)N)C(=O)N[C@@H](CC(C)C)C(=O)N[C@@H](CCCNC(=N)N)C(=O)N[C@@H](Cc1ccc(O)cc1)C(N)=O)C(=O)N[C@@H](Cc1ccc(O)cc1)C(=O)N[C@@H](CCCNC(=N)N)C(=O)N[C@@H](CC(C)C)C(=O)N[C@@H](CCCNC(=N)N)C(=O)N[C@@H](Cc1ccc(O)cc1)C(N)=O [compound 2] (I: {DOTA}-INPCYRLRY-NH2 / II: {DOTA}-INPCYRLRY-NH2; disulfide I:4-II:4) | Antagonist | 143 ± 37 nM | – | – | – | – |
| [Leu^31, Pro^34]-hPYY [reference compound] | – | – | – | – | – | efficiently inhibited forskolin-stimulated cAMP accumulation |
| hPYY: non-labeled human peptide YY, used as control in binding competition [reference compound] | – | – | – | high affinity displacements | – | – |

Now from value to compound, other results behind:

| Activity Y1-cAMP (SK-N-MC): agonistic or antagonistic property (NPY Y1 [1]; 10 μM forskolin) | IC50 (NPY Y1 [2]) | Effect on forskolin-stimulated cAMP accumulation, given alone (NPY Y1 [1]; peptide alone, 20 μM, 10 μM forskolin) | Displacement of 125I-hPYY (FIG. 2) (NPY Y1 [2]) | Compound | Effect on dose response curve of [Leu31,Pro34]-PYY (LP-PYY) (NPY Y1 [1]; peptide fixed at 20 μM, with increasing LP-PYY, 10 μM forskolin, 30 min) | Inhibition of forskolin-stimulated cAMP accumulation (agonist control) (NPY Y1 [1]; applied at 20 μM and 100 nM) |
| --- | --- | --- | --- | --- | --- | --- |
| Antagonist | 294 ± 33 nM | – | – | CCCC[C@H](NC(=O)[C@H](CCCNC(=N)N)NC(=O)[C@H](Cc1c[nH]c2ccccc12)NC(=O)[C@H](CSSC[C@H](NC(=O)[C@@H]1CCCN1C(=O)[C@H](CC(N)=O)NC(=O)[C@@H](NC(=O)CN1CCN(CC(=O)O)CCN(CC(=O)O)CCN(CC(=O)O)CC1)[C@@H](C)CC)C(=O)N[C@@H](Cc1c[nH]c2ccccc12)C(=O)N[C@@H](CCCNC(=N)N)C(=O)N[C@@H](CCCC)C(=O)N[C@@H](CCCNC(=N)N)C(=O)N[C@@H](Cc1ccc(O)cc1)C(N)=O)NC(=O)[C@@H]1CCCN1C(=O)[C@H](CC(N)=O)NC(=O)[C@@H](NC(=O)CN1CCN(CC(=O)O)CCN(CC(=O)O)CCN(CC(=O)O)CC1)[C@@H](C)CC)C(=O)N[C@@H](CCCNC(=N)N)C(=O)N[C@@H](Cc1ccc(O)cc1)C(N)=O [compound 4] (I: {DOTA}-INPCWR[Nle]RY-NH2 / II: {DOTA}-INPCWR[Nle]RY-NH2; disulfide I:4-II:4) | – | – |
| Antagonist | 13 nM | no effect | high affinity displacements | CCCC[C@H](NC(=O)[C@H](CCCNC(=N)N)NC(=O)[C@H](Cc1c[nH]c2ccccc12)NC(=O)[C@H](CSSC[C@H](NC(=O)[C@@H]1CCCN1C(=O)[C@H](CC(N)=O)NC(=O)[C@@H](N)[C@@H](C)CC)C(=O)N[C@@H](Cc1c[nH]c2ccccc12)C(=O)N[C@@H](CCCNC(=N)N)C(=O)N[C@@H](CCCC)C(=O)N[C@@H](CCCNC(=N)N)C(=O)N[C@@H](Cc1ccc(O)cc1)C(N)=O)NC(=O)[C@@H]1CCCN1C(=O)[C@H](CCCCNC(=O)CN1CCN(CC(=O)O)CCN(CC(=O)O)CCN(CC(=O)O)CC1)NC(=O)[C@@H](N)[C@@H](C)CC)C(=O)N[C@@H](CCCNC(=N)N)C(=O)N[C@@H](Cc1ccc(O)cc1)C(N)=O [Peptide No. 11] (I: H-IK(DOTA)PCWR[Nle]RY-NH2 / II: H-INPCWR[Nle]RY-NH2; disulfide I:4-II:4) | shifts the dose response curve of LP-PYY to the right; also recorded: shift the dose response curve of [Leu^31, Pro^34]-hPYY to the right | – |
